Like-named read-outs stand apart in the source and are kept apart here. A value given as a limit tells only on which side of the number the result lay.

A short description of data set [1]: Kinetic aqueous solubility in PBS pH 7.4. The data set is classed as physicochemical. The conditions noted are these: PBS (pH 7.4), 37 °C, pH 7.4, aqueous buffer, kinetic from dmso stock, after 2 h at 37 °C in PBS, 500 μM target concentration, mean ± SEM, n = 3. As to the method:
Preparative purifications over RP-HPLC were performed on a Kinetex XB C18 (5 μm, 250 × 21.2 mm) column on an Armen Spot Prep II integrated HPLC purification system (Gilson, Middleton, WI, USA) with dual-wavelength detection, with an adequately chosen combination of acetonitrile–water, and a flow rate of 15 mL/min. The purity of the compounds obtained was determined by RP-HPLC analyses on a system of two Jasco PU 2080 pumps, a Jasco AS-2055 Plus intelligent sampler connected to a JASCO LC-Net II/ADC equipped with a Jasco MD-2010 Plus PDA detector (Jasco International Co. Ltd., Hachioji, Tokyo, Japan) utilizing a Kinetex C-18 (5 μm, 250 × 4.6 mm) column (Phenomenex Inc., Torrance, CA, USA) and applying a gradient of 30%–100% aqueous AcN in 30 min followed by 100% ACN for 10 min with a flow rate of 1 mL/min. Analysis of samples from the PAMPA and kinetic solubility assays was performed the same way, by using 3-point calibrations and integrating each compound at its UV absorption maximum.
In a 96-well polypropylene plate (Greiner Bio-One, Kremsmünster, Austria), 15 μL stock solutions were added to 285 μL PBS (pH 7.4) to make starting donor solution with 500 μM as target concentration. For each sample, 3 replicates were measured. The samples were covered and shaken at 37 °C, 300 rpm for 2 h (Heidolph Titramax 1000, Heidolph Instruments GmbH & Co. KG, Schwabach, Germany). After that, each sample was transferred into a filter plate (MSSBLPC, Multiscreen Filter plate, Merck kGaA) and filtered (Vaccum Manifold, Merck kGaA, Darmstadt, Germany). The filtrates were transferred into HPLC vials, and acetonitrile (AcN) was added to aliquot to avoid precipitation. The final solvent ratio was AcN:PBS (70:30). Filtrate concentration was determined by HPLC-UV (see Section 2.1) using 3-points calibration.

Data set [2] concerns the target T1, xanthine oxidase (XO) (Bos taurus, UniProt P80457).
T1 construct: purchased Sigma (Merck KGaA)
Put plainly: Xanthine oxidase inhibition, spectrophotometric. Type of data set: biochemical. Particulars: for inhibition at 100 µM: read-out: XO Inhibition (%); for XO Inhibition (%): % inhibition at 100 µM, mean ± SEM, n = 3. As to the method: The xanthine oxidase (XO) inhibitory activity of the compounds was determined using continuous spectrophotometric rate based on a modified protocol of Sigma. […]. In a 96-well plate, the final reaction mixture consisted of 10 µL of sample (dissolved in DMSO, […] stock solution, 100 µM final), 100 µL of xanthine solution (0.15 mM, pH = 7.4), 140 µL of buffer (potassium phosphate, pH = 7.5) and 50 µL of XO (0.2 units/mL). When measuring the enzyme activity, control buffer was used in place of the sample. Allopurinol was applied as a control. The reaction was initiated by the automatic addition of 50 µL of XO solution. The absorbance of XO-induced uric acid production from xanthine was measured at 290 nm for 3 min in a 96-well plate on a BMG Labtech FluoStar Optima plate reader. The inhibitory percentage values were calculated by using Graph Pad Prism 8.0 (La Jolla, CA, USA).

The target in data set [3] is T2, COX-1 enzyme (Ovis aries, UniProt P05979).
T2 construct: purchased BioVision (via VWR International Kft.) K548-100
T2 sequence (P05979 25-600): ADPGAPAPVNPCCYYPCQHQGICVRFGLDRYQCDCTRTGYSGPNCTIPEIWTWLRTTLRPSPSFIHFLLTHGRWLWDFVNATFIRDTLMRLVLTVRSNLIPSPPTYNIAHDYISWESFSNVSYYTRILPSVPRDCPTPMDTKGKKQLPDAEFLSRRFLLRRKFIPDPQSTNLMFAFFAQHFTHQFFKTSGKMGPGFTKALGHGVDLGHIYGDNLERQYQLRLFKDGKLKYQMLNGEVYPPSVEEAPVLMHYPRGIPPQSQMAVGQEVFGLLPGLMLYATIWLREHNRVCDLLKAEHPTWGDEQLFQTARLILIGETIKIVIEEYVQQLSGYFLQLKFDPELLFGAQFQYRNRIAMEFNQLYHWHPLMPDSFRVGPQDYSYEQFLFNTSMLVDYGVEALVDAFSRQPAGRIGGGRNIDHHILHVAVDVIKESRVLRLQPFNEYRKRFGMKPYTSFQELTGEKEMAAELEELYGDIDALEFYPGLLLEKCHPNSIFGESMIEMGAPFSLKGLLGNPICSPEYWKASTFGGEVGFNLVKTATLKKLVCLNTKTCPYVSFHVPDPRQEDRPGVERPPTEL
The data set is described as follows: COX-1 inhibitor screening kit, fluorometric (BioVision K548-100). Type of data set: biochemical. The conditions noted are these: for LLE(COX-1): LLE = pIC50 − logPpredicted; for IC50: mean ± SEM, n = 2. On the procedure: COX-1 inhibitory activity was tested based on the fluorometric method as described in BioVision’s COX-1 inhibitor screening kit leafkit (K548-100, BioVision, CA, USA). Sample solutions were prepared by dissolving in DMSO and subsequently buffer, to get desired concentrations. In a 96-well white plate (655101, F-bottom, Grenier bio-one, Germany), 80 µL reaction mix (containing 76 µL assay buffer, 1 µL COX Probe, 2 µL COX cofactor, and 1 µL COX-1 enzyme) was added to 10 µL sample solution, DMSO and assay buffer to get test wells assigned for sample screen (S), negative control (N) and blank, respectively. An aliquot of 10 µL of arachidonic/NaOH solution was added to each well using a multi-channel pipette to initiate the reaction at the same time, and the fluorescence of each well was measured kinetically at Ex/Em 550/610 nm, at 25OC for 10 min using a FluoStar Optima plate reader (BMG Labtech, Ortenberg, Germany). The COX inhibitory activity of SC560, a standard inhibitor, was also determined.
The change in fluorescence between two points, T1 and T2 were determined, and relative inhibition was calculated according to the following equation:% Inhibition = (ΔN − ΔS)/ΔN × 100 (1) where N is the absorbance of the negative control, and S is that of the sample.
Dose-effect studies on the compounds were used to determine the concentration that inhibits 50% of the enzyme activity. The sigmoidal dose–response model was obtained by using the software GraphPad Prism 8.0 (La Jolla, CA, USA), and these were used to determine the IC50 values of the compounds.

The test system of data set [4] is washed human platelets. The data set is described as follows: Arachidonic acid-induced platelet aggregation (turbidimetric aggregometer). Type of data set: cell-based. The conditions noted are these: washed human platelets treated 3 min, then arachidonic acid (100 μM), mean ± SEM, n = 3, read-out: Antiplatelet IC50. On the procedure:
(§1) All bioactivity data processing, including the calculation of inhibition percentage, mean and corresponding standard error of the mean (SEM), and IC50 values, was performed by GraphPad Prism 8.0 (La Jolla, CA, USA). IC50 values were calculated from the sigmoidal dose–response curves obtained by the log(inhibitor) vs. response and variable slope (DPPH assay) or the log(inhibitor) vs. normalised response and variable slope nonlinear regression model. On the results obtained, no statistical evaluation was performed; instead, differences greater than two-fold were considered relevant. Plotting of the antiplatelet and COX-1 inhibitory IC50 values and the linear regression of the data was performed by Microsoft Excel.
Human platelet suspension (3 × 10^8/mL in Tyrode’s buffer) was prepared as previously described. The protocol for this study was approved by the institutional review board of Kaohsiung Medical University Hospital (Kaohsiung City, Taiwan). Platelets pre-treated with DMSO (vehicle control) or test compounds were stimulated with arachidonic acid (AA), and platelet aggregation was measured using turbidimetric aggregometer (Chrono-Log Co., Havertown, PA, USA) at 37 °C under stirring conditions (1200 rpm).

A short description of data set [5]: Peroxynitrite scavenging (pyrogallol red). Particulars: % inhibition at 500 µM; mean ± SEM, n = 3. As to the method: Peroxynitrite was synthesised by a continuous flow system using syringe pumps as published previously. Briefly, an acidic solution of hydrogen peroxide (0.6 M H2O2, 0.7 M HCl) was pumped to a junction alongside of sodium nitrite solution (0.6 M) at a flow rate of 1.5 mL/min. After passing 10 cm of tubing, it was mixed with a sodium hydroxide solution (1.5 M), also pumped at 1.5 mL/min. The resulting peroxynitrite solution was a bright yellow colour. The tubing around the reaction was submerged in ice. The concentration of the solution was determined by spectrophotometry and was adjusted to 30 mM with 0.1 M NaOH solution.
In a 96-well microplate 245 µL of pyrogallol red (100 µM final concentration, dissolved in 0.1 M glycine buffer) was mixed with 50 µL of sample (0.5 mM final concentration, dissolved in DMSO) and 5 µL ONOO^– solution (500 µM final concentration, freshly prepared). After mixing and keeping it at room temperature for 30 min the absorbance was measured at 550 nm using a FluoStar Optima plate reader (software version 2.20R2, BMG Labtech, Ortenberg, Germany).

Data set [6] in a line: DPPH free radical scavenging assay. The conditions noted are these: for IC50: 30 min, room temperature, MeOH, mean ± SEM, n = 2, read-out: DDPH IC50. As to the method:
as §1
DPPH (1,10-diphenyl-2-picrylhydrazyl) was purchased from Thermo Fisher Scientific. DPPH free radical scavenging assay was performed with some modifications based on the method by previous study. Briefly, in a 96-well microplate, microdilutions of samples (100 µL, starting from 200 µM in HPLC grade MeOH) were made and 100 µL of DPPH reagent (100 µM in MeOH) was added. After 30 min at room temperature in the dark, the absorbance was measured at 550 nm using a FluoStar Optima plate reader (software version 2.20R2, BMG Labtech Ortenberg, Germany). For the blank control, MeOH was used. The scavenging activity was calculated as Inhibition (%) = (A0 − As)/A0 × 100, and IC50 values were calculated by GraphPad Prism 8.0 (La Jolla, CA, USA).

Data set [7] is described as follows: Oxygen radical absorbance capacity (ORAC). The conditions noted are these: 1 µM sample; mean ± SEM, n = 3. As to the method: AAPH ((2,20-Azobis(2-methyl-propionamidine) dihydrochloride) free radical and Trolox standard were purchased from Sigma-Aldrich Hungary. Fluorescein was purchased from Fluka Analytical, Tokyo, Japan. ORAC assay was carried out In a 96-well microplate based on the method from previous study. Briefly, 20 µL of the samples (1 µM final concentration, dissolved in phosphate buffer, pH = 7.4, containing 1% MeOH) were mixed with 60 µL of AAPH (12 mM final concentration, dissolved in phosphate buffer, pH = 7.4) and 120 µL of fluorescein solution (70 nM final concentration, dissolved in phosphate buffer), then the fluorescence was measured (excitation at λ = 485 nm, and emission at λ = 520 nm) through 3 h with 1.5-min cycle intervals with a BMG Labtech FluoStar Optima plate-reader. All experiments were carried out in triplicate, and Trolox was used as standard. The antioxidant capacity is expressed as Trolox Equivalent (TE), as calculated using GraphPad Prism 8.0 (La Jolla, CA, USA).

T1 sequence (P80457 2-1332 limits assumed): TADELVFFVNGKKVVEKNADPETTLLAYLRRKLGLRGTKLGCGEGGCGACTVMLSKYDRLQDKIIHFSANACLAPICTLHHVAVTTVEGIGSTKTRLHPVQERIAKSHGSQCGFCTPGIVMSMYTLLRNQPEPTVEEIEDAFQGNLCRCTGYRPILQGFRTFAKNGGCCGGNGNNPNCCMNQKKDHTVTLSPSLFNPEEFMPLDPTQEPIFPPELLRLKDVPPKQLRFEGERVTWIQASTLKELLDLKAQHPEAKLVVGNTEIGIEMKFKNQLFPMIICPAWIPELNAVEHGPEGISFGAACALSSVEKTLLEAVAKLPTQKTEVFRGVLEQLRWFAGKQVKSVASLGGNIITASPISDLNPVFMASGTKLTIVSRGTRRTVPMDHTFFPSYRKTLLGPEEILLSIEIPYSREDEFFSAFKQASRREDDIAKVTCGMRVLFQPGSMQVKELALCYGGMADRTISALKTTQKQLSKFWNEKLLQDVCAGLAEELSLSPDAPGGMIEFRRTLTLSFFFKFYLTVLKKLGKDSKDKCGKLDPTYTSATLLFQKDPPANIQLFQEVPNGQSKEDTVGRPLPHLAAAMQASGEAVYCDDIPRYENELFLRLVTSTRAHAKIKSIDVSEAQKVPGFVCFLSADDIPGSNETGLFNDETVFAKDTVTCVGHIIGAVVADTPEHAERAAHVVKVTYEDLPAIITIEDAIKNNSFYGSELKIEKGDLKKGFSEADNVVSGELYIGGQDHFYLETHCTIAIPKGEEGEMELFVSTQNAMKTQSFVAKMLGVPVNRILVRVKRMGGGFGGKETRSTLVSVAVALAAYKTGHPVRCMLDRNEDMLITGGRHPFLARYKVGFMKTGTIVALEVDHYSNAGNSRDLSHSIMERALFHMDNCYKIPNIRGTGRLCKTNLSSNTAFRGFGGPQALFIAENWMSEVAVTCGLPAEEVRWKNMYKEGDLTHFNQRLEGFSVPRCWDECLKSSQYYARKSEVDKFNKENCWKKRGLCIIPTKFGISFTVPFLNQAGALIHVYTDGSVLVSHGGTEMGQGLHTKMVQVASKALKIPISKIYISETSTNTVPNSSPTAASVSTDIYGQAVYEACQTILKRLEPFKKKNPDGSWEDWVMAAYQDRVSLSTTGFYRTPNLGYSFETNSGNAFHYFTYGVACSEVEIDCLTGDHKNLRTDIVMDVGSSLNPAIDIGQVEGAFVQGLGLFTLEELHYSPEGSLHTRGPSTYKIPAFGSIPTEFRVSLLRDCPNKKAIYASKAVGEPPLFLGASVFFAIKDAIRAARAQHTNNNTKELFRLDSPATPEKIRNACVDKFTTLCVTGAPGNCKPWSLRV

`CCCCCC(=O)CC(=O)/C=C/c1ccc(O)c(OC)c1` [Compound 11C]: the solubility (kinetic) at 2 h in data set [1] stood at 54 ± 1.3 µM.
On the same count and under the same terms, to `CCCCCC(=O)/C=C(O)/C=C/c1ccc(O)cc1` [Compound 12B] belongs 15.6 ± 0.1 µM; to `CCCCCC(=O)/C=C(O)/C=C/c1ccc(O)c(OC)c1` [Compound 11B], 54 ± 1.3 µM.
Regarding `Oc1ncnc2[nH]ncc12` [allopurinol, reference compound], the inhibition at 100 µM in data set [2] came to 98.8 ± 0.11%.
Regarding `CCCCCC(=O)CC(=O)CCc1ccc(O)c(OC)c1` [Compound 13, 6-gingerdione], in data set [3], the “LLE(COX-1)” value was 1.53. Moreover, the figures for the half-inhibitory concentration (IC50) in data set [3], in data set [4] and in data set [6] were 11.8 ± 5.4 µM, 3.6 ± 0.9 µM and 10.9 ± 0.69 µM, respectively. In addition, the “XO Inhibition (%)” value in data set [2] was less than 5.0%. The “ONOO^– Scavenging (%)” value in data set [5] is given as less than 5.0%. Further, the “ORAC TE” value in data set [7] is reported as 2.60 ± 0.06 Trolox equivalents (TE).
For `CCCCC/C(O)=C/C(=O)CCc1ccc(O)c(OC)c1` [Compound 13A], the solubility (kinetic) at 2 h in data set [1] worked out at 315 ± 23.7 µM.
Same read-out and setting: for `CCCCCC(=O)CC(=O)CCc1ccc(O)c(OC)c1` [Compound 13C] the value was 315 ± 23.7 µM; for `CCCCC/C(O)=C/C(=O)/C=C/c1ccc(O)c(OC)c1` [Compound 11A], 54 ± 1.3 µM.
Still for that read-out and setting: to `CCCCC/C(O)=C/C(=O)/C=C/c1ccc(O)cc1` [Compound 12A] belongs 15.6 ± 0.1 µM; to `CCCCCC(=O)/C=C(\O)CCc1ccc(O)c(OC)c1` [Compound 13B], 315 ± 23.7 µM.
Consider `CCCCCC(=O)CC(=O)/C=C/c1ccc(O)c(OC)c1` [Compound 11, 6-dehydrogingerdione], for which, in data set [3], the “LLE(COX-1)” value was 1.14. Also, the IC50 was 23.1 ± 9.3 µM in data set [3], 4.1 ± 1 µM in data set [4] and 9.04 ± 0.19 µM in data set [6]. In addition, the “XO Inhibition (%)” value in data set [2] is reported as less than 5.0%. In data set [5], the “ONOO^– Scavenging (%)” value was less than 5.0%. Moreover, the “ORAC TE” value in data set [7] was 1.98 ± 0.12 Trolox equivalents (TE).
As for `CCCCCC(=O)CC(=O)/C=C/c1ccc(O)cc1` [Compound 12, (E)-1-(4-hydroxyphenyl)dec-1-ene-3,5-dione], the IC50 is greater than 200 µM in data set [3]; 71.7 ± 28.3 µM in data set [4] (Platelet, 0.05 h); greater than 200 µM in data set [6]. Also, the inhibition at 100 µM in data set [2] is less than 5%. For the same compound, the “ONOO^– Scavenging (%)” value in data set [5] was less than 5.0%. Further, in data set [6], the “DPPH scavenging activity (in words)” value is “inactive”. Besides, the “ORAC TE” value in data set [7] is 2.89 ± 0.49 Trolox equivalents (TE).
With `CCCCCC(=O)CC(=O)/C=C/c1ccc(O)cc1` [Compound 12C], the kinetic solubility at 2 h in data set [1] was 15.6 ± 0.1 µM.

Values taken from article PMC10045534, “Preparation and Evaluation of 6-Gingerol Derivatives as Novel Antioxidants and Antiplatelet Agents” (Antioxidants, 2023).
